Legend:
Format in all cases: in vivo
[1] = test system: Erysiphe graminis tritici (powdery mildew); assay: Test 1 greenhouse foliar spray screen, powdery mildew on wheat; conditions: Blumeria graminis, foliar, Test 1, foliar spray on wheat; disease control rating at 400 ppm / 100 ppm; read-out: POWD MDEW
corn rootworm = assay: Mite/insect screen, CRW; conditions: percent mortality, read-out: CRW RESULTS %; for mortality at 12 ppm: CRW rate 12.00 ppm; for mortality at 24 ppm: CRW rate 24.00 ppm
Outline: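 Each compound, taken up in an emulsifier-containing acetone/alcohol mixture and diluted in water to the stated concentrations, was assessed for percent kill following standard exposure times.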

[2] = test system: Pyricularia oryzae (rice blast); assay: whole plant or invertebrate; conditions: Pyricularia oryzae, foliar, read-out: RICE BLAST, Test 1, foliar spray on rice; disease control rating at 400 ppm / 100 ppm
[3] = test system: melon aphids (Aphis gossypii Glover); assay: Mite/insect screen, MA; conditions: Aphis gossypii, foliar, percent mortality, foliar spray on squash, read-out: MA RESULTS %; for mortality at 200 ppm: rate 200 ppm; for mortality at 400 ppm: rate 400 ppm
Outline: (§1)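 Activity is expressed as percent mortality at the indicated spray concentrations. Plants are sprayed to runoff on upper and lower leaf surfaces with aqueous dilutions of an acetone/alcohol emulsifiable formulation, then dried for one hour.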

[4] = test system: Puccinia recondita tritici (leaf rust); assay: Test 1 greenhouse foliar spray screen, leaf rust on wheat; conditions: Puccinia recondita, foliar, Test 1, foliar spray on wheat; disease control rating at 400 ppm / 100 ppm
[5] = test system: Botrytis cinerea (gray mold); assay: Test 1 greenhouse foliar spray screen, gray mold on grape berries; conditions: Botrytis cinerea, foliar; Test 1, spray on grape berries; disease control rating at 400 ppm / 100 ppm
[6] = test system: Twospotted spider mites (Tetranychus urticae Koch); assay: Mite/insect screen, SM; conditions: Tetranychus urticae, foliar, percent mortality, foliar spray on squash, read-out: SM RESULTS %; for mortality at 400 ppm: rate 400 ppm; for mortality at 200 ppm: rate 200 ppm
Outline: as §1

[7] = test system: Pseudoperonospora cubensis (downy mildew); assay: Test 1 greenhouse foliar spray screen, downy mildew on squash; conditions: Pseudoperonospora cubensis, foliar, Test 1, foliar spray on squash; disease control rating at 400 ppm / 100 ppm; read-out: DOWN MDEW
[8] = test system: southern armyworm (Spodopetra eridania Cramer); assay: Mite/insect screen, SAW; conditions: Spodoptera eridania, foliar, percent mortality, foliar spray on squash, read-out: SAW RESULTS %; for mortality at 200 ppm: rate 200 ppm; for mortality at 400 ppm: rate 400 ppm
Outline: as §1

| Structure (SMILES) | pest or weed control at 400 ppm [1] | mortality at 12 ppm (corn rootworm) | mortality at 24 ppm (corn rootworm) | pest or weed control at 400 ppm [2] | mortality at 200 ppm [3] | mortality at 400 ppm [3] | pest or weed control at 400 ppm [4] | pest or weed control at 400 ppm [5] | mortality at 400 ppm [6] | pest or weed control at 400 ppm [7] | mortality at 200 ppm [8] | mortality at 400 ppm [8] | mortality at 200 ppm [6] |
| --- | --- | --- | --- | --- | --- | --- | --- | --- | --- | --- | --- | --- | --- |
| Fc1cccc2c(OCCc3ccccc3Cl)ccnc12 [Example 269, 4-[2-(2-chlorophenyl)ethoxy]-8-fluoroquinoline] | 90 to 100% | 0% | 40% | 90 to 100% | 30% | 0% | 90 to 100% | 0 to 19% | 0% | 90 to 100% | 0% | 0% | – |
| CCC(COc1ccnc2c(F)cccc12)c1ccc(-c2ccccc2)cc1 (centres unmarked) [Example 270, 4-[2-[1,1'-biphenyl]-4-ylbutoxy]-8-fluoroquinoline] | 0 to 19% | 0% | 0% | 20 to 89% | 0% | 0% | 0 to 19% | 0 to 19% | 80% | 0 to 19% | 20% | 0% | 0% |
| CC(C)(C)c1ccc(CCCNc2ccnc3c(F)cccc23)cc1 [Example 271, N-[3-[4-(t-butyl)phenyl]propyl]-8-fluoro-4-quinolinamine] | 0 to 19% | 0% | 0% | 90 to 100% | 0% | 0% | 20 to 89% | 0 to 19% | 0% | 90 to 100% | 0% | 0% | 0% |
| Fc1cccc2c(OCCCCOc3ccccc3)ccnc12 [Example 272, 8-fluoro-4-(4-phenoxybutoxy)quinoline] | 0 to 19% | 0% | 0% | 20 to 89% | 0% | 0% | 0 to 19% | 0 to 19% | 20% | 20 to 89% | 0% | 0% | 0% |
| CC(=O)Oc1ccc(CCN(C(C)=O)c2ccnc3c(F)cccc23)cc1 [Example 273, N-[2-(4-acetoxyphenyl)ethyl]-N-(8-fluoro-4-quinolinyl)acetamide] | 20 to 89% | – | 0% | 90 to 100% | – | 0% | 20 to 89% | 0 to 19% | 0% | 20 to 89% | – | 0% | – |
| CC(CCOc1ccnc2c(F)cccc12)CC(C)(C)C (centres unmarked) [Example 274, 8-fluoro-4-(3,5,5-trimethylhexyloxy)quinoline] | 90 to 100% | 0% | 0% | 90 to 100% | 100% | 100% | 90 to 100% | 0 to 19% | 0% | 20 to 89% | 0% | 0% | 100% |
| Fc1ccc(CCOc2ccnc3c(F)cccc23)c(F)c1 [Example 275, 8-fluoro-4-[2-(2,4-difluorophenyl)ethoxy]quinoline] | 90 to 100% | 0% | 0% | 90 to 100% | 90% | 100% | 90 to 100% | 0 to 19% | 60% | 90 to 100% | 0% | 0% | 0% |
| Fc1ccc(CCOc2ccnc3cc(Cl)ccc23)c(F)c1 [Example 276, 7-chloro-4-[2-(2,4-difluorophenyl)ethoxy]quinoline] | 90 to 100% | 0% | 0% | 0 to 19% | 0% | 80% | 20 to 89% | 0 to 19% | 60% | 0 to 19% | 0% | 0% | 0% |
| CCOc1ccc(CCOc2ccnc3cc(Cl)cc(Cl)c23)cc1 [Example 277, 5,7-dichloro-4-[2-(4-ethoxyphenyl)ethoxy]quinoline] | 90 to 100% | – | 0% | 0 to 19% | – | 0% | 0 to 19% | 0 to 19% | 0% | 0 to 19% | – | 0% | – |
| CCCCOc1ccc(CCOc2ccnc3c(F)cccc23)cc1 [Example 278, 4-[2-(4-butoxyphenyl)ethoxy]-8-fluoroquinoline] | 90 to 100% | 0% | 0% | 90 to 100% | 90% | 0% | 90 to 100% | 0 to 19% | 0% | 90 to 100% | 0% | 100% | 60% |
| CCOc1ccc2nc(C)cc(OCCCOCc3ccccc3)c2c1 [Example 279, 6-ethoxy-2-methyl-4-[3-(phenylmethoxy)propoxy]quinoline] | 0 to 19% | 0% | 0% | 90 to 100% | 0% | 80% | 90 to 100% | 0 to 19% | 0% | 90 to 100% | 0% | 0% | 0% |
| Clc1cccc2c(NCCc3cccc(Oc4ccccc4)c3)ccnc12 [Example 280, 8-chloro-N-[2-(3-phenoxyphenyl)ethyl]-4-quinolinamine] | 90 to 100% | 0% | 0% | 90 to 100% | 0% | 0% | 90 to 100% | 0 to 19% | 0% | 90 to 100% | 60% | 0% | 0% |
| Clc1cccc2c(NCCCCc3ccccc3)ccnc12 [Example 281, 8-chloro-N-(4-phenylbutyl)-4-quinolinamine] | 20 to 89% | 0% | 0% | 90 to 100% | 0% | 0% | 20 to 89% | 0 to 19% | 0% | 90 to 100% | 0% | 0% | 0% |
| Fc1cccc2c(OCCCc3ccc(Oc4ccccc4)cc3)ccnc12 [Example 282, 8-fluoro-4-[3-(4-phenoxyphenyl)propoxy]quinoline] | 0 to 19% | 0% | 0% | 20 to 89% | 0% | 0% | 0 to 19% | 0 to 19% | 0% | 0 to 19% | 0% | 0% | 0% |

From patent EP0326331B1, “Substituted quinolines and cinnolines” (Dow AgroSciences LLC, priority 1988, dated 1989)
